Active and inactive are the calls of the source. No cut-off for these calls is given here.

Broadly, the EC50 is the midpoint of the concentration-response curve. In general, Emax refers to the maximal effect, on the per cent scale that the assay sets. As a reminder, the Papp is a coefficient for how fast a substance crosses the barrier. For orientation: Vdss means a proportionality between amount in the body and measured concentration, not a real space. Broadly, the Cmax is the maximum level reached in the sampled fluid or tissue. Usually Tmax stands for the time from dosing to the highest level. One may read the AUC as concentration integrated over time.

Data set [1] deals with T1, Metabotropic glutamate receptor 7 (Homo sapiens, UniProt Q14831). Description: Agonist activity at human mGluR7 expressed in CHO cells assessed as change in extracellular impedance incubated for 40 mins by CellKey impedance assay. Format: cell-based. As to conditions: filed as agonist.
T1 sequence (Q14831 whole entry): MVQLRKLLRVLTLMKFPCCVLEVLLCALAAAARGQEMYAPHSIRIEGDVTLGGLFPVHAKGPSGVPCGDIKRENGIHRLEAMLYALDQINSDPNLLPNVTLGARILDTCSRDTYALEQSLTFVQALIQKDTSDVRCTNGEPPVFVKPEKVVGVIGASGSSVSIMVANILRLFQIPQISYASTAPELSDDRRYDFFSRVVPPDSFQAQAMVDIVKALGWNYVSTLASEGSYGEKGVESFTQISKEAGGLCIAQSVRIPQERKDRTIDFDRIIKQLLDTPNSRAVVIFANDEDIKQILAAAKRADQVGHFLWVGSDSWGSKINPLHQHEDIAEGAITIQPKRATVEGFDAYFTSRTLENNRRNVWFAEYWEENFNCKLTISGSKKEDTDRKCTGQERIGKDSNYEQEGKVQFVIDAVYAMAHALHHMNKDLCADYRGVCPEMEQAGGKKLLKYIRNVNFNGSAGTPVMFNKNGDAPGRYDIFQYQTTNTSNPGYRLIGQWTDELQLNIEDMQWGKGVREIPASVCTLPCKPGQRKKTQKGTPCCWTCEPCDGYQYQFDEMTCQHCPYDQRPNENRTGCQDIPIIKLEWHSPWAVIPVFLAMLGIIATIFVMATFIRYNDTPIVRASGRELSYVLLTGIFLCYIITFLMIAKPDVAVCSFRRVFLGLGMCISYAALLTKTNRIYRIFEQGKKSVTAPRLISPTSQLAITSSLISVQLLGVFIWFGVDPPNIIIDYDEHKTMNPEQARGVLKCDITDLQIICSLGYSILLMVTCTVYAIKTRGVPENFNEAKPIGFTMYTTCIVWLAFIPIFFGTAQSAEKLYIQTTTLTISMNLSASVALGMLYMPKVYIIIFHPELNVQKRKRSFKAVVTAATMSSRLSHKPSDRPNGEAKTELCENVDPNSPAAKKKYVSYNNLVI
In data set [2] the target is T1, Metabotropic glutamate receptor 7. Description: Positive allosteric modulation of mGluR7 (unknown origin) assessed as change in forskolin-induced cAMP production by measuring reduction in maximum response preincubated with compound for 15 mins in the presence of LY341495 followed by forskolin stimulation and measured after 5 hrs by luminescence based steady glo assay. The arrangement: scale not given: the % may be the effect or the level left. As to conditions: filed as positive allosteric modulator, time 315.0 min. A general note: cAMP levels reflect the balance of adenylyl cyclase and phosphodiesterase activity.

The target is the same in data set [3]. Description: Positive allosteric modulation of mGluR7 (unknown origin) assessed as change in forskolin-induced cAMP production by measuring fold change in EC50 shift preincubated with compound for 15 mins in the presence of LY341495 followed by forskolin stimulation and measured after 5 hrs by luminescence based steady glo assay. The note with it: filed as positive allosteric modulator, time 315.0 min.

Data set [4] has the same target. Description: Agonist activity at human mGluR7b expressed in CHO cells assessed as inhibition of forskolin-stimulated cAMP accumulation. The data set is classed as cell-based.
Data set [5] has the same target. Kind of data set: Agonist activity at human mGluR7 expressed in CHO cells expressing CRE-Luc reporter gene assessed as reduction in forskolin-stimulated cAMP production preincubated for 15 mins followed by forskolin stimulation and measured after 5 hrs by luminescence based Steady glo assay. The data set is classed as cell-based. Background: Reporter assays use an easily measured gene product as a stand-in for the process of interest.

The target is the same in data set [6]. Kind of data set: Agonist activity at human mGluR7 expressed in CHO cells expressing CRE-Luc reporter gene assessed as reduction in forskolin-stimulated cAMP production by measuring maximum efficacy preincubated for 15 mins followed by forskolin stimulation and measured after 5 hrs by luminescence based Steady glo assay relative to control. The data set is classed as cell-based. The note with it: filed as agonist, time 315.0 min.

Data set [7] deals with Sodium-dependent noradrenaline transporter (Homo sapiens) (UniProt P23975). Description: Binding affinity to human norepinephrine transporter at 10 uM.
Sequence of Sodium-dependent noradrenaline transporter (Homo sapiens) (P23975 whole entry): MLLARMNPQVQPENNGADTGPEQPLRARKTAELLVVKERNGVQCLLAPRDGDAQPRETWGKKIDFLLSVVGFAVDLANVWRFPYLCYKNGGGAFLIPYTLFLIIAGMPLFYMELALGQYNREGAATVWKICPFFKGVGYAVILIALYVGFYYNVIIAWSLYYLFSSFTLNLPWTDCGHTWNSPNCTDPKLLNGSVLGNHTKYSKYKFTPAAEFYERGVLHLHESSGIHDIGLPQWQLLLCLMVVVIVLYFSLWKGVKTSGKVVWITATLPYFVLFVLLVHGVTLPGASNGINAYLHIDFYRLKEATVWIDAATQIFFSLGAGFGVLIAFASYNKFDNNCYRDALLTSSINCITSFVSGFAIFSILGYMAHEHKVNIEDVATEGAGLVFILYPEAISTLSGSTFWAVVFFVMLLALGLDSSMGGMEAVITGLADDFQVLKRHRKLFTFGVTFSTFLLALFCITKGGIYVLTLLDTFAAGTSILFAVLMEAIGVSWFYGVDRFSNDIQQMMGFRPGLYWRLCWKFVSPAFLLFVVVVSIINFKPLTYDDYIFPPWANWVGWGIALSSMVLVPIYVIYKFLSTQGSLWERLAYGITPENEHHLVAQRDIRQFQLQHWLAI
Data set [8] concerns the target Histamine H1 receptor (Homo sapiens) (UniProt P35367). Description: Binding affinity to human H1 receptor at 10 uM.
The target of data set [9] is Adrenergic receptor alpha-1 (Rattus norvegicus) (UniProt P15823+P23944+P43140). Kind of data set: Binding affinity to rat alpha 1 adrenergic receptor at 10 uM. The data set is classed as protein assay.
Data set [10] has as its target T1, Metabotropic glutamate receptor 7. Description: Desensitization at human mGluR7 expressed in CHO cells assessed as reduction in tool agonist response at 10 uM preincubated for 1 hrs followed by compound replacement with assay buffer and measured 1 hrs after tool agonist addition by CellKey impedance assay relative to control. The data set is classed as cell-based. Further details: scale not given: the % may be the effect or the level left.

Data set [11] has the same target. Description: Allosteric agonist activity at mGluR7 (unknown origin) assessed as reduction in forskolin-induced cAMP production by measuring fold change in EC50 preincubated for 15 mins in the presence of LY341495 followed by forskolin stimulation and measured after 5 hrs by luminescence based steady glo assay. As to conditions: filed as agonist, time 315.0 min.

The target is the same in data set [12]. Description: Competitive binding affinity to mGluR7 (unknown origin) assessed as rightward shift in forskolin-induced cAMP production level by measuring fold change preincubated for 15 mins in the presence of LY341495 followed by forskolin stimulation and measured after 5 hrs by luminescence based steady glo assay. The note with it: filed as agonist, time 315.0 min.

A short description of data set [13]: Stability in cryopreserved rat hepatocytes assessed as clearance measured for 120 mins by LC-MS/MS analysis. Format: ADME, cell-based, Hepatocyte. The note with it: read-out: CLH.
Data set [14] in a line: Unbound fraction in rat plasma incubated for 6 hrs by LC-MS/MS based rapid equilibrium dialysis. Format: ADME, cell-free.
The nature of data set [15]: Unbound fraction in rat brain incubated for 6 hrs by LC-MS/MS based rapid equilibrium dialysis. Format: ADME, tissue-based.
A short description of data set [16]: Apparent permeability from apical to basolateral side in MDCK-MDR1 cells. The data set is classed as ADME, cell-based, Canis lupus familiaris. The note with it: dog.
A short description of data set [17]: Efflux ratio of apparent permeability in MDCK-MDR1 cells. Format: ADME, cell-based, Canis lupus familiaris. The note with it: dog.
The nature of data set [18]: Volume of distribution at steady state in Sprague-Dawley rat at 0.5 mg/kg, iv measured after 24 hrs by LC-MS/MS analysis. Format: ADME, organism-based. As to conditions: in vivo.
A short description of data set [19]: Oral bioavailability in Sprague-Dawley rat at 3 mg/kg measured after 24 hrs by LC-MS/MS analysis. The data set is classed as ADME, organism-based. The note with it: in vivo.
Data set [20] is described as follows: Cmax in Sprague-Dawley rat at 3 mg/kg, po measured after 24 hrs by LC-MS/MS analysis. The arrangement: dose 3 mg/kg, time 24 hrs, route po. As to conditions: in vivo. The data set is classed as ADME, organism-based.
A short description of data set [21]: Tmax in Sprague-Dawley rat at 3 mg/kg, po measured after 24 hrs by LC-MS/MS analysis. Format: ADME, organism-based. As to conditions: in vivo.
Data set [22] in a line: Half-life in Sprague-Dawley rat at 3 mg/kg, po measured after 24 hrs by LC-MS/MS analysis. The note with it: in vivo. The data set is classed as ADME, organism-based.
Data set [23] is described as follows: AUC(0 to infinity) in Sprague-Dawley rat at 3 mg/kg, po measured after 24 hrs by LC-MS/MS analysis. The data set is classed as ADME, organism-based. Further details: time 24 hrs, dose 3 mg/kg, route po. The note with it: in vivo.
Data set [24] in a line: Ratio of drug concentration in Sprague-Dawley rat brain to plasma at 3 mg/kg, po measured after 4 hrs by LC-MS/MS analysis. The data set is classed as ADME, organism-based.
A short description of data set [25]: Ratio of unbound brain to plasma concentration in Sprague-Dawley rat at 3 mg/kg, po measured after 4 hrs by LC-MS/MS analysis. The data set is classed as ADME, organism-based.
The target of data set [26] is Metabotropic glutamate receptor 4 (Homo sapiens) (UniProt Q14833). Description: Agonist activity at human mGluR4 expressed in CHO cells assessed as reduction in forskolin-induced cAMP production incubated for 1 hrs by HTRF analysis. Format: cell-based.
The target in data set [27] is Metabotropic glutamate receptor 2 (Homo sapiens) (UniProt Q14416). Kind of data set: Agonist activity at mGluR2 (unknown origin) at 1 to 10 uM by cAMP assay. As to conditions: dose 1-10 µM.
Data set [28] has as its target Metabotropic glutamate receptor 6 (Homo sapiens) (UniProt O15303). Kind of data set: Agonist activity at mGluR6 (unknown origin) at 1 to 10 uM by cAMP assay. As to conditions: dose 1-10 µM.
For data set [29], the target named is Metabotropic glutamate receptor 8 (Homo sapiens) (UniProt O00222). Kind of data set: Agonist activity at human mGluR8 expressed in CHO cells assessed as reduction in forskolin-induced cAMP production incubated for 1 hrs by HTRF analysis. Format: cell-based.
Data set [30] addresses Metabotropic glutamate receptor 1 (Homo sapiens) (UniProt Q13255). Kind of data set: Agonist activity at mGluR1 (unknown origin) at 1 to 10 uM by Galphaqi5 calcium flux assay. The note with it: dose 1-10 µM. Background: Calcium flux is commonly read through the fluorescence of an indicator in the cells.
Data set [31] addresses Metabotropic glutamate receptor 3 (Homo sapiens) (UniProt Q14832). Description: Agonist activity at mGluR3 (unknown origin) at 1 to 10 uM by Galphaqi5 calcium flux assay. As to conditions: dose 1-10 µM.
Data set [32] addresses Metabotropic glutamate receptor 5 (Homo sapiens) (UniProt P41594). Description: Agonist activity at mGluR5 (unknown origin) at 1 to 10 uM by Galphaqi5 calcium flux assay. As to conditions: dose 1-10 µM.
Data set [33] addresses Metabotropic glutamate receptor 7 (Mus musculus, UniProt Q68ED2). Kind of data set: Agonist activity at mouse mGluR7 expressed in CHO cells expressing CRE-Luc reporter gene assessed as reduction in forskolin-stimulated cAMP production preincubated for 15 mins followed by forskolin stimulation and measured after 5 hrs by luminescence based Steady glo assay. Format: cell-based.

Data set [34] concerns the target T1, Metabotropic glutamate receptor 7. Description: Desensitization at human mGluR7 expressed in CHO cells assessed as reduction in tool agonist response at EC80 concentration preincubated for 1 hrs followed by compound replacement with assay buffer and measured 1 hrs after tool agonist addition by CellKey impedance assay relative to control. The data set is classed as cell-based.

The test system of data set [35] is Rattus norvegicus. Kind of data set: In vivo agonist activity in po dosed alcohol preferring Marchigian-Sardinian rat assessed as reduction in alcohol self-administration measured after 1 hrs. Format: functional, organism-based. The note with it: dose 0.3-3 mg/kg.
For data set [36], the system named is Rattus norvegicus. Description: In vivo agonist activity in alcohol preferring Marchigian-Sardinian rat assessed as reduction in alcohol self-administration at 3 mg/kg, po administered for 1 hrs relative to control. Format: functional. The arrangement: scale not given: the % may be the effect or the level left.
The subject of data set [37] is Rattus norvegicus. Description: In vivo agonist activity in alcohol preferring Marchigian-Sardinian rat assessed as reduction in alcohol self-administration by measuring number of response at 3 mg/kg, po administered for 1 hrs. The data set is classed as functional.
Data set [38] can be described thus: Stability in human liver microsomes assessed as intrinsic clearance preincubated for 60 mins followed by NADPH addition and measured upto 60 mins by LC-MS/MS analysis. Format: ADME, Microsome. The note with it: time < 120 min, read-out: CLH.
Data set [39] in a line: Stability in rat liver microsomes assessed as intrinsic clearance preincubated for 60 mins followed by NADPH addition and measured upto 60 mins by LC-MS/MS analysis. The data set is classed as ADME, Microsome. The note with it: time < 120 min, read-out: CLH.

Sequence of Metabotropic glutamate receptor 6 (Homo sapiens) (O15303 whole entry): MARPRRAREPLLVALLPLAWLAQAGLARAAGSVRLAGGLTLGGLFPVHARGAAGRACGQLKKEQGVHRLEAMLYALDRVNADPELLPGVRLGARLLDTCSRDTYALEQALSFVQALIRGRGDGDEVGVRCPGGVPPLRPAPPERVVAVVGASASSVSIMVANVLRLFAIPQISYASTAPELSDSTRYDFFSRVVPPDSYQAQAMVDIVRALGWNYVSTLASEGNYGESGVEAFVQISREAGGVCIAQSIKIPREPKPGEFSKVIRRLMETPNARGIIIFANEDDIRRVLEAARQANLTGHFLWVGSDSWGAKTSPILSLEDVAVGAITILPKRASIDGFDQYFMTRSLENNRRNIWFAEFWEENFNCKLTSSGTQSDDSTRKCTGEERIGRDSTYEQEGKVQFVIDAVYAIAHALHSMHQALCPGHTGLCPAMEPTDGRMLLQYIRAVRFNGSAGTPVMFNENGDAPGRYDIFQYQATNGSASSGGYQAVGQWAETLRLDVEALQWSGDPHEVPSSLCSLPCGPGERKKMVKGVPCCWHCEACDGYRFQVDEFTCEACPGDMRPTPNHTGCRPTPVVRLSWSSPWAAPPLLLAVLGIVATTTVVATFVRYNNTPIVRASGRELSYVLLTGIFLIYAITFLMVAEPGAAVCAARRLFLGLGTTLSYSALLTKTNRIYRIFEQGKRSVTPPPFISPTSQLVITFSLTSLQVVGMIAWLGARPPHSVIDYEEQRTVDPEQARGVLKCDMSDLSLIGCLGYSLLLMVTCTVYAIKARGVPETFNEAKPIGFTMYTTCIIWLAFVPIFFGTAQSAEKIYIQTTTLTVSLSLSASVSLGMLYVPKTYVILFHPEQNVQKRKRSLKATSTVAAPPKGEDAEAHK
Sequence of Histamine H1 receptor (Homo sapiens) (P35367 whole entry): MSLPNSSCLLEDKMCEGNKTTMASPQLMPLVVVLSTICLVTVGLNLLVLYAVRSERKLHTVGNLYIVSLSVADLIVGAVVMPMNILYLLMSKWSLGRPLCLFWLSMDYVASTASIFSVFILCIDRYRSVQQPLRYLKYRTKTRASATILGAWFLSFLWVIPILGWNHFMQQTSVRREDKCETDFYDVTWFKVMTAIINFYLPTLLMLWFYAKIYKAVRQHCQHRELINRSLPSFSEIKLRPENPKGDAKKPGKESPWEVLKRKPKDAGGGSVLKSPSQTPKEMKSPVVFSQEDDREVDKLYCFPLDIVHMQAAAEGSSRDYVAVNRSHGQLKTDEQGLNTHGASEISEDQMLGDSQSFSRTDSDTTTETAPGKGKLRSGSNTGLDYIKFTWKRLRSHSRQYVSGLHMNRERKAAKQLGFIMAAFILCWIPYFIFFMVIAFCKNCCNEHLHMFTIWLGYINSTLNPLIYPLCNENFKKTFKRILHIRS
Sequence of Metabotropic glutamate receptor 3 (Homo sapiens) (Q14832 23-879 limits assumed): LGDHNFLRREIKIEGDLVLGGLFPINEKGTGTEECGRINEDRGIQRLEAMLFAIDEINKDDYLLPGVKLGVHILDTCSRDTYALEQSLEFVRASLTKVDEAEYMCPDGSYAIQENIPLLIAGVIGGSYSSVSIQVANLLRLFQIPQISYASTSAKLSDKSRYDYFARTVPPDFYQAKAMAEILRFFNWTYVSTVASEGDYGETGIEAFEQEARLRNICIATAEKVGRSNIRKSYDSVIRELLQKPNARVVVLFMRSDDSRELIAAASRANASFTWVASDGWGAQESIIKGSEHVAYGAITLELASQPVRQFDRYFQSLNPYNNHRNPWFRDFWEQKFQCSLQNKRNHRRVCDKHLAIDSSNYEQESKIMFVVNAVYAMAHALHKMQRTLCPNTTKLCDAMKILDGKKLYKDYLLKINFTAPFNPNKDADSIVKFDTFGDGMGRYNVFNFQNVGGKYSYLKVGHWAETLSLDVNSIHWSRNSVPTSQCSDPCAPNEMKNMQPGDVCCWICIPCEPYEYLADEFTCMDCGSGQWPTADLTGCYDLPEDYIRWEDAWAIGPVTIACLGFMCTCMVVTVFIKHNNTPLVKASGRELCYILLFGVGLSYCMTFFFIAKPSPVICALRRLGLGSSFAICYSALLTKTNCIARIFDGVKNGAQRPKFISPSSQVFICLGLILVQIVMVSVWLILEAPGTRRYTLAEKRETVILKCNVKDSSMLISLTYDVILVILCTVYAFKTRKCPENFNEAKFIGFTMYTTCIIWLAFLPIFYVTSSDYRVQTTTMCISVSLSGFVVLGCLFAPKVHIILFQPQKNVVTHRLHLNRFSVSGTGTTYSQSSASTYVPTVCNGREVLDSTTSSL
Sequence of Metabotropic glutamate receptor 5 (Homo sapiens) (P41594 21-1212 limits assumed): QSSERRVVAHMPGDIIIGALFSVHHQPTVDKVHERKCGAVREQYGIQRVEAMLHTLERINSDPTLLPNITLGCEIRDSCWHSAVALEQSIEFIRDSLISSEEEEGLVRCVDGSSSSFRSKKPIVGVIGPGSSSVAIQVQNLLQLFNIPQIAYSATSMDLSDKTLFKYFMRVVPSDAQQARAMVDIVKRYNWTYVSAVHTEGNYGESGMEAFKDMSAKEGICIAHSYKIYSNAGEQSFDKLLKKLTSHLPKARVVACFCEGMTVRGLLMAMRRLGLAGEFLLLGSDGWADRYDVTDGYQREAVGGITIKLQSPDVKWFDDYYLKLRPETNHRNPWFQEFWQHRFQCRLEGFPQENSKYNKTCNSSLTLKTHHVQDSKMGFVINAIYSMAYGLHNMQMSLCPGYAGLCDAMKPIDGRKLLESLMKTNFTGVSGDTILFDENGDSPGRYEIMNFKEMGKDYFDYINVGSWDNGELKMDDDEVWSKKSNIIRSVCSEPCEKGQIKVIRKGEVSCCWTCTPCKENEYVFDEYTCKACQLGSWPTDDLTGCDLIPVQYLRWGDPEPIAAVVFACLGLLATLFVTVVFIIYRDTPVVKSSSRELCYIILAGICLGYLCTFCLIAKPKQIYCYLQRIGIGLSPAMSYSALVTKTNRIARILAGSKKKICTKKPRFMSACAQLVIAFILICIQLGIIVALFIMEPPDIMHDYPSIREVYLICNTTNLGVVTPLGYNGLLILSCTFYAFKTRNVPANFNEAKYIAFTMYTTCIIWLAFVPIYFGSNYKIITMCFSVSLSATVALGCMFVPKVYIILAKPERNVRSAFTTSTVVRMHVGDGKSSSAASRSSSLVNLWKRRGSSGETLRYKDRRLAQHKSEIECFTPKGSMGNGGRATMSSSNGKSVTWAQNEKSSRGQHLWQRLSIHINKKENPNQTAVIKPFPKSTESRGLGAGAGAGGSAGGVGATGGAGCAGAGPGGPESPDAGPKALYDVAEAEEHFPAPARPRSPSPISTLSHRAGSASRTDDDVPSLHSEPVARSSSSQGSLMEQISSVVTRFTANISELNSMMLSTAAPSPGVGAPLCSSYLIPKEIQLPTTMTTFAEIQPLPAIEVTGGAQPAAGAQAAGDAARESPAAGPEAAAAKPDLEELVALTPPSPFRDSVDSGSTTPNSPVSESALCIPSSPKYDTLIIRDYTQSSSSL
Sequence of Metabotropic glutamate receptor 7 (Mus musculus, UniProt Q68ED2) (Q68ED2 whole entry): as the sequence (Q14831 whole entry) above, with R5G, A27V, S488T, A520P, D578N counted along it

As to `N[C@@H](CCC(=O)O)C(=O)O`, the outcome in data set [1] was Active.

As for `O=C(Nc1ccc(Oc2ccc(Cl)cn2)c(Cl)c1)c1ccccn1`, the Activity in data set [2] was 43%. Besides, the fold change (FC) in [3] came to 2.

For `CNC[C@@H](OCC(=O)N1CCCc2ccccc21)c1ccccc1`, the EC50 in data set [4] was 110 nM.

Turning to `O=C(Cc1ccc(Cl)cc1)NC1Cc2ccccc2C1`, the EC50 in data set [5] turned out to be 156 nM. The Emax in data set [6] turned out to be 71%.

Turning to `c1ccc(C(NCCNC(c2ccccc2)c2ccccc2)c2ccccc2)cc1`, the result in data set [7], in data set [8], in data set [9] and in [1] was Active. For the same compound, the Activity in data set [10] is 74%. For the same compound, the EC50 in data set [4] was 64 nM. Further, the fold change (FC) in [11] amounted to 2.

For `N[C@@H](CCP(=O)(O)O)C(=O)O`, the fold change (FC) in data set [12] stood at 13.

With `C[C@H](C(=O)NC1Cc2ccccc2C1)c1ccccc1`, the EC50 in data set [5] amounted to 113 nM. The Emax in data set [6] came out at 95%.

Turning to `C[C@H](C(=O)N[C@H]1COc2ccccc2[C@@H]1S(C)(=O)=O)c1ccc(F)cc1`, the EC50 in data set [5] was found to be 7 nM; in [33], 2 nM. Further, in data set [6], the Emax came to 97%. The CLint scaled in data set [13] was determined as 145 mL/min/kg. The values for the Fu in data set [14] and in data set [15] were 0.283 and 0.227, respectively. Besides, in [16], the Papp was 16.2 ×10⁻⁶ cm/s. The Ratio in data set [17] turned out to be 0.5. Besides, the Vdss in data set [18] is 1.49 L/kg. In data set [19], the F was 24%. This compound had a Cmax in data set [20] of 1240 nM. The Tmax in data set [21] worked out at 0.67 h. Besides, the t1/2 in [22] worked out at 2.25 h. This compound gave an AUC in data set [23] of 1404 ng·h/mL. For the same compound, the BPR in [24] amounted to 0.56. Moreover, the “K(p,uu,brain)” value in [25] is listed as 0.45. Moreover, the outcome in [26], in data set [27], in data set [28], in data set [29], in [30] and in data set [31] was inactive. The outcome in [32] and in [34] was inactive. Moreover, the result in data set [1] was Active. In addition, the fold change (FC) in data set [11] stood at 2. Besides, the values for the Activity entry with Rattus norvegicus [35], in the data set on Rattus norvegicus [36] and with Rattus norvegicus [37] were “Dose-Dependent Effect”, 25% and 40.9, respectively.

As to `C[C@H](C(=O)N[C@@H]1CCc2ccccc2[C@H]1S(C)(=O)=O)c1ccc(F)cc1`, in [6], the Emax is 95%. In addition, the microsomal CLint in [38] came out at 2 µL/min/mg; in data set [39], 55 µL/min/mg.

For the compound `C[C@@H](C(=O)NC1Cc2ccccc2C1)c1ccccc1`, in data set [5], the EC50 came out at 1340 nM. Moreover, the Emax in [6] worked out at 69%.

For the compound `C[C@H](C(=O)NC1Cc2ccccc2C1)c1ccc(F)cc1`, the EC50 in data set [5] is 55 nM. Besides, the Emax in [6] came out at 96%.

(Values after ChEMBL document CHEMBL5252666, “Discovery of CVN636: A Highly Potent, Selective, and CNS Penetrant mGluR7 Allosteric Agonist” (ACS Med Chem Lett, 2023).)
